One may read the melting point as the temperature, or range, at which the solid turns liquid.

This is an account of results in a melting point compilation (Tetko et al.; mined from patent text by program, amines drawn as free bases though some values may be those of a salt).

Compound `NC(=O)Cn1c(-c2ccc(Br)o2)nc2cccnc21` displayed a melting point greater than 250 °C.
`CC(C)(C)OC(=O)NC1C=Cc2ccccc2CC1` (configuration not stated): the melting point was in the range of 146 to 148 °C.
The value for `O=c1c2c([nH]n1-c1ccccc1)CCCC2` was 178 to 181 °C; that for `CC(C)c1ccc2oc(C(O)COc3ccc(C(=O)O)cc3)cc2c1` (configuration not stated) was 148 to 150 °C.
`COc1ccc(-n2nc(C#N)cc2-c2ccc(S(C)(=O)=O)cc2)cc1F` yielded a melting point of 192 to 193 °C.
With `CC(O)Cn1c(CO)nc(C(C)C)c1Sc1cc(Cl)cc(Cl)c1` (configuration not stated) the figure was 159 to 161 °C; with `Cc1cc(-n2ccnc2)c2cccc(OCc3c(Cl)ccc(S(=O)(=O)N4CCC[C@H]4C(=O)N4CCOCC4)c3Cl)c2n1`, 50 °C.
In turn, `CCCn1c(C(=O)OC)cc(=O)c2oc3ccc(Cl)cc3c(=O)c21` displayed a melting point of 240 to 244 °C.
With `Cc1oc(-c2ccc(C(F)(F)F)cc2)nc1COc1cccc(Cn2oc(=O)[nH]c2=O)c1`, the melting point lay within 142 to 143 °C.
Take `O=S(CCCCCOc1ccc(C2=C(c3ccccc3)CCCc3cc(O)ccc32)cc1)CCCC(F)(F)C(F)(F)F` (configuration not stated): the melting point was in the range of 138 to 140 °C.
The value for `Nc1ccc(-c2cc(=O)c3cccnc3o2)cc1` was 254 to 255 °C; that for `CCCSc1nc2ccc(Br)cc2c(=O)n1CCC` was 65 to 67 °C; that for `CCn1c(=O)n(C2OC(CO)C(O)C2O)c2nc(N)[nH]c(=O)c21` (configuration not stated) was 185 to 187 °C.
Compound `COC(=O)C1=C(C)Nc2nccn2C1c1cccc([N+](=O)[O-])c1` (configuration not stated) yielded a melting point of 263 to 264 °C.
The value for `Cc1c(Cl)cc(C#N)n1CCC(C)NC(=O)C(C#N)C(C)C(C)(C)C` (configuration not stated) was 111 to 118 °C.
The value for `CC[C@H](C)[C@H](NC(=O)O[C@@H](CC(C)C)C(=O)OCc1ccccc1)C(=O)NC(C)C` was 90 to 92 °C.
Compound `CCC1c2cc(F)ccc2-c2cc(-c3ccccc3)ccc2N1S(=O)(=O)c1ccc(O)cc1` (configuration not stated) gave a melting point of 207 °C.
For the compound `Clc1ccc(CSCc2ccc(Cl)c(Cl)c2)cc1Cl`, the melting point lay in the range of 98 to 99 °C.
`CCc1noc(C2=C(C)NC(C)=C(C(=O)OCCOC)C2c2cc(Cl)cc(Cl)c2)n1` (configuration not stated) had a melting point of 201 to 202 °C.
With `CNC(=O)c1c(NC(=O)CCl)c(OC)c(C(=O)NC)c(NC(=O)CCl)c1OC` the figure was 146 to 148 °C; with `CN(CCN1CCOCC1)c1ccc(OCC(=O)N[C@@H](CC(N)=O)C(=O)N[C@@H](Cc2ccccc2)[C@H](O)C(=O)N2CCC[C@H]2C(=O)NC(C)(C)C)cc1`, 85 to 95 °C; with `Clc1cc(N2CCNCC2)ccn1`, 119 to 120 °C.
`COc1ccc(-c2ccncc2)cc1-c1ccc(Oc2ccccc2)cc1` gave a melting point of 173 to 218 °C.
`CN1C(=O)CCC2(C)c3ccc(Sc4ccccc4Cl)cc3CCC12` (single isomer, unassigned; (+)) had a melting point of 123 to 125 °C.
`CCOc1ccc(-c2nc(OC(C)=O)c(-c3ccccc3)s2)cc1`: the melting point is 149 to 150 °C.
`CC(C)(C)c1cc(-c2nc(CN3CCCC3)no2)cc(C(C)(C)C)c1O` registered a melting point of 100 to 102 °C.
The value for `CCc1ccc2c(=O)c(CSC)cn(C)c2c1` was 104 to 106 °C.
`CC(=O)Nc1cccc(-c2ccnc3c(C(=O)c4ccco4)cnn23)c1`: the melting point lay in the range of 195 to 196 °C.
The compound `CCC(=O)Nc1cccc(-c2ccnc3c(C(=O)c4cccs4)cnn23)c1` registered a melting point of 208 to 210 °C.
For the compound `CC1CCCN1CCCN1CCN(CCN2CCCC2)C1=C(C#N)C#N` (configuration not stated), the melting point is 95 to 96 °C.
In turn, `COC1c2ccccc2C(c2ccc([N+](=O)[O-])cc2)=NN(c2nc(=O)n(C)s2)C1(C)OC` (configuration not stated) showed a melting point of 262 to 263 °C.
In turn, `CN1Cc2c(C(=O)OC3CCCCC3)ncn2-c2cccc(Cl)c2C1=O` yielded a melting point of 208 to 209 °C.
Consider `OC(c1ccc(Cl)cc1)c1cc2ccncc2[nH]1` (configuration not stated), for which the melting point is 176 to 180 °C.
The compound `CCn1c(Oc2cccc(N)c2)nnc1[C@@H](C)NS(=O)(=O)c1ccc(Cl)c(Cl)c1` showed a melting point of 142 to 145 °C.
Take `COc1ccc(C(=O)Nc2c(C)c(C)c3c(c2C)C(c2ccc(C(C)C)cc2)C(C)(C)O3)cc1OC` (configuration not stated): the melting point lay within 171 to 173 °C.
The compound `O=C(O)Cc1cccc([N+](=O)[O-])c1[N+](=O)[O-]` yielded a melting point of 209 to 215 °C.
Take `C=CCC1c2ccccc2Cn2cc3c(c21)C(=O)c1ccccc1C3=O` (configuration not stated): the melting point is 159 to 160 °C.
As for `O=Cc1cc(Br)c(OCCBr)c(Br)c1`, the melting point lay in the range of 84 to 85 °C.
In turn, `COC(=O)COc1ccc(SCc2ccc(-c3ccc(C(F)(F)F)cc3)cc2)c2c1CCCO2` had a melting point of 122 to 124 °C.
The value for `COc1cc(Nc2nc(-c3ccc(Cl)cc3)cc(C(F)(F)F)n2)ccc1-n1cnc(C)c1` was 202 to 204 °C; that for `CCN(CC)C(=O)c1cccs1` was 50 to 52 °C; that for `O=C(O)Cc1c(-c2ccccc2)c2cc3c(cc2oc1=O)CCC3` was 216 to 218 °C.
For `Cc1ccc(N2N=C3c4ccncc4CCC3CC2=O)cc1` (configuration not stated), the melting point lay in the range of 152 to 153 °C.
For `COc1cc2ncnc(Nc3ccc(F)c(Cl)c3)c2cc1OCC1(C)COC1`, the melting point is 226 to 227 °C.
For the compound `CC(C)N(CC(=O)c1ccc(F)cc1)c1ccccc1`, the melting point is 78 to 81 °C.
On to `O=C1C2CCCCN2C(=S)N1c1ccc(F)cc1F` (configuration not stated), for which the melting point was 159 to 160 °C.
With `COc1cccc(C23CN(C)CC2CC32OCC(C)(C)CO2)c1` (configuration not stated) the figure was 132 to 135 °C; with `COc1cccc2cc(C(=O)c3ccc(Cl)c(S(N)(=O)=O)c3)oc12`, 167 to 171 °C.
`Clc1nc(C(Cl)Cl)c(Cl)s1` yielded a melting point of 42 to 44 °C.
In turn, `Cc1nc2cccc(OCC(C)(C)NC(=O)c3ccncc3)c2c(N)c1C(=O)O` displayed a melting point of 195 to 198 °C.
For `CC(C)c1c(C(=O)c2cccnc2)c2ccccc2n1C`, the melting point came to 114 °C.
With `O=C(NC1CC1)c1cccc(-c2ccc3c(c2)C(Oc2ccc(Cl)cc2Cl)CC3)c1` (configuration not stated), the melting point was in the range of 179 to 180 °C.
For the compound `CC(C)c1c(C=CC2CC(O)CC(O)O2)n(-c2ccc(Cl)cc2)c(=O)c2ccccc12` (mixture of isomers), the melting point is 181 to 185 °C.
For `CC1=C(C(=O)Nc2ccccn2)C(c2ccccc2Cl)C(C(=O)OCCCCn2c(C)nc3cnccc32)=C(c2ccc(F)cc2)N1` (configuration not stated), the melting point is 129 to 132 °C.
`COC(=O)CCc1cc2cc(C#N)ccc2o1` displayed a melting point of 91 to 92 °C.
`CC1=C(C(=O)OCCCN(C)Cc2ccccc2)C(c2ccccc2C(F)(F)F)c2c(ccnc2OC(C)C)N1` (configuration not stated): the melting point is 143 to 144 °C.
`Nc1c(-c2cc(Cl)ccc2O)c2cc(Cl)ccc2[nH]c1=O`: the melting point fell in the range of 184 to 185 °C.
Compound `COc1ccc2c(c1)C(=O)N(c1ccc3ncccc3c1)C2` came in with a melting point of 194 to 197 °C.
On to `OCCc1nccn1CCCc1ccc(O)cc1`, for which the melting point was 116 to 117 °C.
In turn, `CN(C(N)=O)c1ccccc1S` had a melting point of 73 to 75 °C.
The compound `Cc1ccc2nc3c(nc2c1)SC(=C(C#N)C#N)S3` gave a melting point of 265 to 267 °C.
With `Cc1c(SCCCN2CCOCC2)ccnc1CSc1nc2ccccc2[nH]1`, the melting point fell in the range of 149 to 150 °C.
Take `Oc1ncnc2c1c(Nc1cccnc1)nn2Cc1ccccc1`: the melting point lay within 150 to 160 °C.
`CCNC(=O)c1ccnc([N+](=O)[O-])c1` displayed a melting point of 65 to 67 °C.
`CCOC(=O)C1=Cc2cc(Cl)cc(C)c2NC1C(F)(F)F` (configuration not stated): the melting point lay in the range of 154 to 155 °C.
The value for `O=C1NCCNCCNCCNC(=O)c2cccc1n2` was 224 to 227 °C; that for `C=Cc1ccc(CN2C(=O)c3ccccc3C2=O)c2ccccc12` was 146 to 147 °C.
As to `Cc1nc(-c2ccc(Cl)cc2C(=O)c2ccccc2)n[nH]1`, the melting point lay in the range of 148 to 150 °C.
With `O=c1oc2c(c(O)c1C(c1cccc(S(=O)(=O)Nc3ccccc3)c1)C1CC1)CCCCCC2` (configuration not stated), the melting point fell in the range of 200 to 203 °C.
With `O=C(NN=Cc1ccnc2ccccc12)C1CCC1` the figure was 138 °C.
`C=CCc1c(N2C(=O)C3=C(CCCC3)C2=O)ccc(Cl)c1O` came in with a melting point of 80 to 82.5 °C.
`CC(C)Oc1ccc2c(c1)N(C)C(=O)N(c1ccc(C(F)(F)F)cc1)S2(=O)=O`: the melting point fell in the range of 158 to 160 °C.
`NS(=O)(=O)c1cccc(-c2cc(-c3nc(-c4ccc(C(F)(F)F)c(OCC(F)(F)F)c4)cc(C(F)(F)F)n3)ccn2)c1` had a melting point of 211 °C.
On to `COC(=O)c1cc(C=O)ccc1[N+](=O)[O-]`, for which the melting point turned out to be 76.7 °C.
`CC(=O)Nc1c(-c2cccc(-n3c(N)nc4ccccc43)c2)cnn1C` registered a melting point of 135 to 137 °C.
The value for `CCC#CCOc1cc2c(cc1/C=C/C=C/C(C)=C/C(=O)O)C(C)(C)CCC2(C)C` was 208 to 209 °C; that for `COc1cc(OC(CCc2ccc(Cl)cc2)Cn2ccnc2)ccc1NC(C)=O` (configuration not stated) was 175 to 178 °C.
`O=C1CC(c2ccccc2O)=Nc2ccc(N3CCOCC3)cc21` had a melting point of 290 to 291 °C.
In the case of `CCCCCCCCOc1ccc(C2CN=C(c3c(F)cccc3Cl)S2)cc1` (configuration not stated), the melting point is 41 to 41.5 °C.
In the case of `CN1CCC(Nc2nccc(Oc3ccc(NC(=O)c4cc(F)cc(N5CCOCC5)c4)c4ccccc34)n2)CC1`, the melting point is 128 to 129 °C.
The value for `COC(=O)c1cc(F)c(O)nc1O` was 208 to 213 °C; that for `CCOc1ccc(OCC(C)(NS(=O)(=O)Cc2ccccc2)C(=O)N(C)OC)cc1` (configuration not stated) was 179 to 181 °C; that for `CC12CCC3C(CCC4CC(O)CCC43C)C1CCC2=S` (configuration not stated) was 172 to 173 °C.
In the case of `CC(=O)Nc1ccc(CC[C@](O)(CC(=O)O)C(C)C)cc1`, the melting point fell in the range of 119 to 120 °C.
In turn, `COC(=O)c1sccc1Nc1ccc(F)cc1[N+](=O)[O-]` displayed a melting point of 172 to 175 °C.
In turn, `CCOC(=O)CC1c2cc(C(F)(F)F)ccc2C(=O)N1CC(F)(F)F` (racemic) gave a melting point of 54.5 to 55.5 °C.
Regarding `COC[C@H]1O[C@H](ONC(=O)c2nc(-c3ccc(Cl)c(OC)c3F)cc(N)c2Cl)[C@H](OC)[C@@H](OC)[C@@H]1OC`, the melting point was in the range of 184 to 187 °C.
